Assay results: ChEMBL document CHEMBL1649524, “Resistance selection studies comparing the activity of razupenem (PTZ601) to vancomycin and linezolid against eight methicillin-resistant and two methicillin-susceptible Staphylococcus aureus strains” (2009)
≈ marks a conversion by molar mass, not a printed value.

Columns and labels:
Type in all cases: functional
[1] = test system: Staphylococcus aureus; test: Antimicrobial activity against heterogeneous vancomycin-intermediate Staphylococcus aureus 873 after 30 passages by macrodilution method
[2] = test system: Staphylococcus aureus; test: Antimicrobial activity against vancomycin-resistant Staphylococcus aureus 509 measured after 10 antibiotic-free subculturing by macrodilution method
[3] = test system: Staphylococcus aureus; test: Antimicrobial activity against heterogeneous vancomycin-intermediate Staphylococcus aureus 168 by macrodilution method
[4] = test system: Staphylococcus aureus; test: Antimicrobial activity against heterogeneous vancomycin-intermediate Staphylococcus aureus 168 measured on day 15 by macrodilution method; conditions: Staphylococcus aureus, 168, 360 h
[5] = test system: Staphylococcus aureus; test: Antimicrobial activity against vancomycin-intermediate Staphylococcus aureus 555 measured on day 50 by macrodilution method
[6] = test system: Staphylococcus aureus; test: Antimicrobial activity against heterogeneous vancomycin-intermediate Staphylococcus aureus 873 measured on day 5 by macrodilution method; conditions: Staphylococcus aureus, 873, 120 h
[7] = test system: Staphylococcus aureus; test: Antimicrobial activity against methicillin-resistant Staphylococcus aureus 525 measured on day 5 by macrodilution method; conditions: Staphylococcus aureus, 525, 120 h
[8] = test system: Staphylococcus aureus; test: Antimicrobial activity against vancomycin-resistant Staphylococcus aureus 509 after 50 passages by macrodilution method
[9] = test system: Staphylococcus aureus; test: Antimicrobial activity against methicillin-resistant Staphylococcus aureus 525 measured after 10 antibiotic-free subculturing by macrodilution method
[10] = test system: Staphylococcus aureus; test: Antimicrobial activity against methicillin-susceptible Staphylococcus aureus 540 measured on day 25 by macrodilution method; conditions: Staphylococcus aureus, 540, 600 h
[11] = test system: Staphylococcus aureus; test: Antimicrobial activity against vancomycin-resistant Staphylococcus aureus 510 by macrodilution method
[12] = test system: Staphylococcus aureus; test: Antimicrobial activity against vancomycin-intermediate Staphylococcus aureus 1287 measured after 10 antibiotic-free subculturing by macrodilution method
[13] = test system: Staphylococcus aureus; test: Antimicrobial activity against methicillin-susceptible Staphylococcus aureus 543 measured on day 20 by macrodilution method; conditions: Staphylococcus aureus, 543, 480 h
[14] = test system: Staphylococcus aureus; test: Antimicrobial activity against vancomycin-resistant Staphylococcus aureus 509 by macrodilution method
[15] = test system: Staphylococcus aureus; test: Antimicrobial activity against vancomycin-intermediate Staphylococcus aureus 555 after 27 passages by macrodilution method
[16] = test system: Staphylococcus aureus; test: Antimicrobial activity against methicillin-susceptible Staphylococcus aureus 543 measured on day 25 by macrodilution method; conditions: Staphylococcus aureus, 543, 600 h
[17] = test system: Staphylococcus aureus; test: Antimicrobial activity against vancomycin-intermediate Staphylococcus aureus 1287 measured on day 35 by macrodilution method
[18] = test system: Staphylococcus aureus; test: Antimicrobial activity against vancomycin-intermediate Staphylococcus aureus 555 measured on day 40 by macrodilution method
[19] = test system: Staphylococcus aureus; test: Antimicrobial activity against methicillin-resistant Staphylococcus aureus 525 measured on day 45 by macrodilution method
[20] = test system: Staphylococcus aureus; test: Antimicrobial activity against vancomycin-resistant Staphylococcus aureus 510 measured on day 10 by macrodilution method; conditions: Staphylococcus aureus, 510, 240 h
[21] = test system: Staphylococcus aureus; test: Antimicrobial activity against vancomycin-resistant Staphylococcus aureus 510 measured on day 5 by macrodilution method; conditions: Staphylococcus aureus, 510, 120 h
[22] = test system: Staphylococcus aureus; test: Antimicrobial activity against methicillin-susceptible Staphylococcus aureus 540 measured on day 45 by macrodilution method
[23] = test system: Staphylococcus aureus; test: Antimicrobial activity against vancomycin-resistant Staphylococcus aureus 509 measured on day 30 by macrodilution method
[24] = test system: Staphylococcus aureus; test: Antimicrobial activity against methicillin-susceptible Staphylococcus aureus 543 measured on day 45 by macrodilution method
[25] = test system: Staphylococcus aureus; test: Antimicrobial activity against heterogeneous vancomycin-intermediate Staphylococcus aureus 873 measured on day 50 by macrodilution method
[26] = test system: Staphylococcus aureus; test: Antimicrobial activity against vancomycin-intermediate Staphylococcus aureus 1287 by macrodilution method
[27] = test system: Staphylococcus aureus; test: Antimicrobial activity against methicillin-resistant Staphylococcus aureus 547 measured on day 45 by macrodilution method

C[C@H]1C=C(c2csc(SC3=C(C(=O)O)N4C(=O)[C@H]([C@@H](C)O)[C@H]4[C@H]3C)n2)CN1 [RAZUPENEM]
MIC [1]: 16 mg/L (≈ 39.3 µM)
MIC [2]: 1 mg/L (≈ 2.45 µM)
MIC [3]: 4 mg/L (≈ 9.82 µM)
MIC [4]: 8 mg/L (≈ 19.6 µM)
MIC [5]: 16 mg/L (≈ 39.3 µM)
MIC [6]: 2 mg/L (≈ 4.91 µM)
MIC [7]: 2 mg/L (≈ 4.91 µM)
MIC [8]: 4 mg/L (≈ 9.82 µM)
MIC [9]: 8 mg/L (≈ 19.6 µM)
MIC [10]: 0.03 mg/L (≈ 0.0736 µM)
MIC [11]: 1 mg/L (≈ 2.45 µM)
MIC [12]: 0.25 mg/L (≈ 0.613 µM)
MIC [13]: 0.03 mg/L (≈ 0.0736 µM)
MIC [14]: 2 mg/L (≈ 4.91 µM)
MIC [15]: 4 mg/L (≈ 9.82 µM)
MIC [16]: 0.03 mg/L (≈ 0.0736 µM)
MIC [17]: 2 mg/L (≈ 4.91 µM)
MIC [18]: 4 mg/L (≈ 9.82 µM)
MIC [19]: 32 mg/L (≈ 78.5 µM)
MIC [20]: 2 mg/L (≈ 4.91 µM)
MIC [21]: 2 mg/L (≈ 4.91 µM)
MIC [22]: 0.06 mg/L (≈ 0.147 µM)
MIC [23]: 4 mg/L (≈ 9.82 µM)
MIC [24]: 0.06 mg/L (≈ 0.147 µM)
MIC [25]: 16 mg/L (≈ 39.3 µM)
MIC [26]: 0.06 mg/L (≈ 0.147 µM)
MIC [27]: 16 mg/L (≈ 39.3 µM)
